In US9358233B2, “Method for treating acute myeloid leukemia” (priority 2010, dated 2016):

System: patients with relapsed/refractory AML
Assay: Clinical trial of BI 6727 in combination with LD-Ara-C in AML patients
Assay type: in vivo
Method: BI 6727 (350 mg) was administered as a one-hour intravenous infusion on Days 1+15 every 28 days in combination with fixed dose LD-Ara-C (low-dose cytarabine) (20 mg twice daily s.c. [subcutaneous]). The starting dose of BI 6727 was based on the MTD previously determined in solid tumor patients. Patients with no progression after the first cycle were allowed to continue treatment.

[1] = preliminary, 32 patients with relapsed/refractory AML, different BI 6727 doses in combination with LD-Ara-C

For `CC[C@@H]1C(=O)N(C)c2cnc(Nc3ccc(C(=O)N[C@H]4CC[C@H](N5CCN(CC6CC6)CC5)CC4)cc3OC)nc2N1C(C)C` [BI 6727, N-[trans-4-[4-(cyclopropylmethyl)-1-piperazinyl]cyclohexyl]-4-[[(7R)-7-ethyl-5,6,7,8-tetrahydro-5-methyl-8-(1-methylethyl)-6-oxo-2-pteridinyl]amino]-3-methoxy-benzamide], which MTD (BI 6727 d1+15q28d in combination with LD-Ara-C) is on record?
The MTD was 350 mg.

And the “DLTs as rated per protocol (kind)” value (human, in vivo)?
The value was “pneumonia, mucositis, hypersensitivity/allergic reaction and myocardial infarction”.

What about the “Dose-limiting toxicities (DLTs), number of patients” value (human, in vivo) of the same molecule?
The value was “four”.

And the Clinical activity (in combination with LD-Ara-C, AML patients)?
Its Clinical activity is “showed first signs of clinical activity”.

And the “Best response: incomplete blood count recovery (CRi) or complete remission (CR), number of patients” value [1]?
The value was “seven”.

And the “Best response: partial remission, number of patients” value [1]?
The value was 1 patients.

What about the “Best response: temporarily stable blood values ("no change"), number of patients” value [1] of the same molecule?
Its value is “Six”.

And the “Progression during or at the end of the first-treatment cycle, number of patients” value [1]?
The value was “Eleven”.
